Measurements published in patent US20260001928A1 (CORTERIA PHARMACEUTICALS, priority 2022, published 2026).
*1 amine or outer side, *2 acyl side, *3 side chain or, on linkers, in order; H or OH if unused. Where a SMILES comes first, the peptide text is derived from it. Side-chain parts run from the residue outwards. [ ]: non-standard residue; d: D form. The star is where a group is joined. C18 diacid = O=C(O)CCCCCCCCCCCCCCCCC(=O)*; C16 diacid = O=C(O)CCCCCCCCCCCCCCC(=O)*; γGlu = O=C(O)[C@H](CCC(=O)[*:2])N[*:1]; NMeI = CC[C@H](C)[C@H](NC)C(=O)O; Aib = CC(C)(N)C(=O)O

These molecules were tested on human LAD2 cells.
Type: cell-based
Experimental: LAD2 cells (20000 cells/well, 96-well plates and 10,000 cells/well in 384-well plates) were incubated with compounds for 30 min. The R-hexosaminidase released into the supernatants and in cell lysates was quantified using the fluorogenic substrate 4-methylumbelliferyl-N-acetyl-b-D-glucosaminide.
On the day of the assay, the lyophilized peptides were dissolved in DMSO and/or PBS 1× pH 7.4, to obtain stock solutions. The stock solutions were used to prepare working serial dilutions to have final concentrations in assay ranging from 50, 100 or 300 to 0.1 or 0.001 μM. Each peptide was tested in biological duplicates. When compounds were dissolved in DMSO, the final solvent concentration in assay was 0.5% (v/v).
The percentage of degranulation, expressed as % of R-hexosaminidase release, was calculated by dividing the fluorescence signal of the supernatant by the sum of the signals from the supernatant and cell pellet (lysed with Triton X-100, final 1%) and multiplying by 100.
Dose-response curves were generated by plotting the % of R-hexosaminidase release versus total release of cells treated with triton (y-axis) against the concentrations of peptides tested (x-axis). The Mast Cell Degranulation (MCD) EC50 values and standard errors were calculated using XLfit 5.5.0.5 based on the following equation:
4 Parameter Sigmoidal Model: f=(A+((B−A)/(1+((C/x)^D))))
where A=Emin, B=Emax, C=EC50 and D=slope

Structure (SMILES) | EC50 [µM]
CC[C@H](C)[C@H](NC)C(=O)N[C@H](C(=O)N[C@@H](CC(C)C)C(=O)N[C@@H](CO)C(=O)N[C@@H](CC(C)C)C(=O)N[C@@H](CC(=O)O)C(=O)N[C@@H](C(=O)N1CCC[C@H]1C(=O)N[C@H](C(=O)N[C@@H](CCCCN)C(=O)N[C@@H](CC(C)C)C(=O)N[C@@H](CCCCNC(=O)CC[C@H](NC(=O)CCCCCCCCCCCCCCCCC(=O)O)C(=O)O)C(=O)N[C@@H](CCCCN)C(=O)N[C@H](C(=O)N[C@@H](CC(C)C)C(=O)N[C@@H](CC(C)C)C(=O)N[C@@H](CCC(=O)O)C(=O)N[C@@H](CCC(N)=O)C(=O)N[C@@H](CCC(=O)O)C(=O)N[C@@H](CCCCN)C(=O)N[C@@H](CCC(N)=O)C(=O)N[C@@H](CCCCN)C(=O)NC(C)(C)C(=O)N[C@@H](CCC(N)=O)C(=O)N[C@@H](CCCNC(=N)N)C(=O)N[C@@H](CCC(=O)O)C(=O)N[C@@H](CCC(N)=O)C(=O)N[C@@H](C)C(=O)N[C@@H](CCC(=O)O)C(=O)N[C@H](C(=O)N[C@@H](CC(N)=O)C(=O)NC(C)(C)C(=O)N[C@@H](CCC(N)=O)C(=O)N[C@H](C(=O)N[C@@H](CC(C)C)C(=O)N[C@@H](C)C(=O)N[C@@H](CCC(N)=O)C(=O)N[C@H](C(N)=O)C(C)C)[C@@H](C)CC)[C@@H](C)O)[C@@H](C)CC)[C@@H](C)CC)C(C)C)C(C)C [Cmpd 145] (H-[NMeI]VLSLD[dV]PIKLK([γGlu-C18 diacid])KILLEQEKQK[Aib]QREQAETN[Aib]QILAQV-NH2) | > 100
CC[C@H](C)[C@H](NC(C)=O)C(=O)N[C@H](C(=O)N[C@@H](CC(C)C)C(=O)N[C@@H](CO)C(=O)N[C@@H](CC(C)C)C(=O)N[C@@H](CC(=O)O)C(=O)N[C@@H](C(=O)N1CCC[C@H]1C(=O)N[C@H](C(=O)N[C@@H](CCCCN)C(=O)N[C@@H](CC(C)C)C(=O)N[C@@H](CCCCNC(=O)CC[C@H](NC(=O)CCCCCCCCCCCCCCC(=O)O)C(=O)O)C(=O)N[C@@H](CCCCN)C(=O)N[C@H](C(=O)N[C@@H](CC(C)C)C(=O)N[C@@H](CC(C)C)C(=O)N[C@@H](CCC(=O)O)C(=O)N[C@@H](CCC(N)=O)C(=O)N[C@@H](CCC(=O)O)C(=O)N[C@@H](CCCCN)C(=O)N[C@@H](CCC(N)=O)C(=O)N[C@@H](CCCCN)C(=O)N[C@@H](C)C(=O)N[C@@H](CCC(N)=O)C(=O)N[C@@H](CCCNC(=N)N)C(=O)N[C@@H](CCC(=O)O)C(=O)N[C@@H](CCC(N)=O)C(=O)N[C@@H](C)C(=O)N[C@@H](CCC(=O)O)C(=O)N[C@H](C(=O)N[C@@H](CC(N)=O)C(=O)NC(C)(C)C(=O)N[C@@H](CCC(N)=O)C(=O)N[C@H](C(=O)N[C@@H](CC(C)C)C(=O)N[C@@H](C)C(=O)N[C@@H](CCC(N)=O)C(=O)N[C@H](C(N)=O)C(C)C)[C@@H](C)CC)[C@@H](C)O)[C@@H](C)CC)[C@@H](C)CC)C(C)C)C(C)C [Cmpd 161] (Ac-IVLSLD[dV]PIKLK([γGlu-C16 diacid])KILLEQEKQKAQREQAETN[Aib]QILAQV-NH2) | > 50
CC[C@H](C)[C@H](NC(C)=O)C(=O)N[C@H](C(=O)N[C@@H](CC(C)C)C(=O)N[C@@H](CO)C(=O)N[C@@H](CC(C)C)C(=O)N[C@@H](CC(=O)O)C(=O)N[C@@H](C(=O)N1CCC[C@H]1C(=O)N[C@H](C(=O)N[C@@H](CCCCN)C(=O)N[C@@H](CC(C)C)C(=O)N[C@@H](CCCCNC(=O)CC[C@H](NC(=O)CCCCCCCCCCCCCCC(=O)O)C(=O)O)C(=O)N[C@@H](CCCCN)C(=O)N[C@H](C(=O)N[C@@H](CC(C)C)C(=O)N[C@@H](CC(C)C)C(=O)N[C@@H](CCC(=O)O)C(=O)N[C@@H](CCC(N)=O)C(=O)N[C@@H](CCC(=O)O)C(=O)N[C@@H](C)C(=O)N[C@@H](CCC(N)=O)C(=O)N[C@@H](CCCCN)C(=O)N[C@@H](CCCCN)C(=O)N[C@@H](CCC(N)=O)C(=O)N[C@@H](CCCNC(=N)N)C(=O)N[C@@H](CCC(=O)O)C(=O)N[C@@H](CCC(N)=O)C(=O)N[C@@H](C)C(=O)N[C@@H](CCC(=O)O)C(=O)N[C@H](C(=O)N[C@@H](CC(N)=O)C(=O)NC(C)(C)C(=O)N[C@@H](CCC(N)=O)C(=O)N[C@H](C(=O)N[C@@H](CC(C)C)C(=O)N[C@@H](C)C(=O)N[C@@H](CCC(N)=O)C(=O)N[C@H](C(N)=O)C(C)C)[C@@H](C)CC)[C@@H](C)O)[C@@H](C)CC)[C@@H](C)CC)C(C)C)C(C)C [Cmpd 165] (Ac-IVLSLD[dV]PIKLK([γGlu-C16 diacid])KILLEQEAQKKQREQAETN[Aib]QILAQV-NH2) | > 100

The next lines start with the values.

EC50 [µM] | Structure (SMILES)
> 100 | CC[C@H](C)[C@H](NC(C)=O)C(=O)N[C@H](C(=O)N[C@@H](CC(C)C)C(=O)N[C@@H](CO)C(=O)N[C@@H](CC(C)C)C(=O)N[C@@H](CC(=O)O)C(=O)N[C@@H](C(=O)N1CCC[C@H]1C(=O)N[C@H](C(=O)N[C@@H](CCCCN)C(=O)N[C@@H](CC(C)C)C(=O)N[C@@H](CCCCNC(=O)CC[C@H](NC(=O)CCCCCCCCCCCCCCCCC(=O)O)C(=O)O)C(=O)N[C@@H](CCCCN)C(=O)N[C@H](C(=O)N[C@@H](CC(C)C)C(=O)N[C@@H](CC(C)C)C(=O)N[C@@H](CCC(=O)O)C(=O)N[C@@H](CCC(N)=O)C(=O)N[C@@H](CCC(=O)O)C(=O)N[C@@H](CCCCN)C(=O)N[C@@H](CCC(N)=O)C(=O)N[C@@H](CCCCN)C(=O)N[C@@H](CCCCN)C(=O)N[C@@H](CCC(N)=O)C(=O)N[C@@H](CCCNC(=N)N)C(=O)N[C@@H](CCC(=O)O)C(=O)N[C@@H](CCC(N)=O)C(=O)N[C@@H](C)C(=O)N[C@@H](CCC(=O)O)C(=O)N[C@H](C(=O)N[C@@H](CC(N)=O)C(=O)NC(C)(C)C(=O)N[C@@H](CCC(N)=O)C(=O)N[C@H](C(=O)N[C@@H](CC(C)C)C(=O)N[C@@H](C)C(=O)N[C@@H](CCC(N)=O)C(=O)N[C@H](C(N)=O)C(C)C)[C@@H](C)CC)[C@@H](C)O)[C@@H](C)CC)[C@@H](C)CC)C(C)C)C(C)C [Cmpd 125] (Ac-IVLSLD[dV]PIKLK([γGlu-C18 diacid])KILLEQEKQKKQREQAETN[Aib]QILAQV-NH2)
> 50 | CC[C@H](C)[C@H](NC(C)=O)C(=O)N[C@H](C(=O)N[C@@H](CC(C)C)C(=O)N[C@@H](CO)C(=O)N[C@@H](CC(C)C)C(=O)N[C@@H](CC(=O)O)C(=O)N[C@@H](C(=O)N1CCC[C@H]1C(=O)N[C@H](C(=O)N[C@@H](CCCCN)C(=O)N[C@@H](CC(C)C)C(=O)N[C@@H](CCCCNC(=O)CC[C@H](NC(=O)CCCCCCCCCCCCCCC(=O)O)C(=O)O)C(=O)N[C@@H](CCCCN)C(=O)N[C@H](C(=O)N[C@@H](CC(C)C)C(=O)N[C@@H](CC(C)C)C(=O)N[C@@H](CCC(=O)O)C(=O)N[C@@H](CCC(N)=O)C(=O)N[C@@H](CCC(=O)O)C(=O)N[C@@H](CCCCN)C(=O)N[C@@H](CCC(N)=O)C(=O)N[C@@H](CCCCN)C(=O)NC(C)(C)C(=O)N[C@@H](CCC(N)=O)C(=O)N[C@@H](CCCNC(=N)N)C(=O)N[C@@H](CCC(=O)O)C(=O)N[C@@H](CCC(N)=O)C(=O)N[C@@H](C)C(=O)N[C@@H](CCC(=O)O)C(=O)N[C@H](C(=O)N[C@@H](CC(N)=O)C(=O)NC(C)(C)C(=O)N[C@@H](CCC(N)=O)C(=O)N[C@H](C(=O)N[C@@H](CC(C)C)C(=O)N[C@@H](C)C(=O)N[C@@H](CCC(N)=O)C(=O)N[C@H](C(N)=O)C(C)C)[C@@H](C)CC)[C@@H](C)O)[C@@H](C)CC)[C@@H](C)CC)C(C)C)C(C)C [Cmpd 162] (Ac-IVLSLD[dV]PIKLK([γGlu-C16 diacid])KILLEQEKQK[Aib]QREQAETN[Aib]QILAQV-NH2)
> 100 | CC[C@H](C)[C@H](NC(C)=O)C(=O)N[C@H](C(=O)N[C@@H](CC(C)C)C(=O)N[C@@H](CO)C(=O)N[C@@H](CC(C)C)C(=O)N[C@@H](CC(=O)O)C(=O)N[C@@H](C(=O)N1CCC[C@H]1C(=O)N[C@H](C(=O)N[C@@H](C)C(=O)N[C@@H](CC(C)C)C(=O)N[C@@H](CCCCNC(=O)CC[C@H](NC(=O)CCCCCCCCCCCCCCC(=O)O)C(=O)O)C(=O)N[C@@H](CCCCN)C(=O)N[C@H](C(=O)N[C@@H](CC(C)C)C(=O)N[C@@H](CC(C)C)C(=O)N[C@@H](CCC(=O)O)C(=O)N[C@@H](CCC(N)=O)C(=O)N[C@@H](CCC(=O)O)C(=O)N[C@@H](CCCCN)C(=O)N[C@@H](CCC(N)=O)C(=O)N[C@@H](CCCCN)C(=O)N[C@@H](CCCCN)C(=O)N[C@@H](CCC(N)=O)C(=O)N[C@@H](CCCNC(=N)N)C(=O)N[C@@H](CCC(=O)O)C(=O)N[C@@H](CCC(N)=O)C(=O)N[C@@H](C)C(=O)N[C@@H](CCC(=O)O)C(=O)N[C@H](C(=O)N[C@@H](CC(N)=O)C(=O)NC(C)(C)C(=O)N[C@@H](CCC(N)=O)C(=O)N[C@H](C(=O)N[C@@H](CC(C)C)C(=O)N[C@@H](C)C(=O)N[C@@H](CCC(N)=O)C(=O)N[C@H](C(N)=O)C(C)C)[C@@H](C)CC)[C@@H](C)O)[C@@H](C)CC)[C@@H](C)CC)C(C)C)C(C)C [Cmpd 163] (Ac-IVLSLD[dV]PIALK([γGlu-C16 diacid])KILLEQEKQKKQREQAETN[Aib]QILAQV-NH2)
